Here are results for nine compounds from PubChem BioAssay (NCI).

Several values for one entry are separate records, joined by “and”; a condition that tells them apart may be missing. Equal values may be shown once.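 96-well plates; 48 h exposure; 5 concentrations. Endpoints by linear interpolation between flanking doses. Not reached: highest tested concentration assigned. GI50 is the concentration that inhibits growth by half. TGI marks complete inhibition of growth.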

Test systems include COLO 205 colon; HCT-15 colon; K-562 leukemia; KM12 colon; NCI-H23 lung; RPMI-8226 leukemia; SF-268 CNS; SF-539 CNS; SW-620 colon; UACC-257 melanoma.
Common to all, as to experiment: NCI anticancer screen, dose series, 48 h

Consider `CN1CCN(C(=O)c2ccc(NC(=O)Nc3ccc(N(C)c4ccnc(Nc5ccc(CS(C)(=O)=O)cc5)n4)cc3)cc2)CC1`, for which the GI50 is 13 µM in the assay on COLO 205 colon; > 25 µM in the assay with HCT-15 colon; 12.6 µM in the assay with K-562 leukemia; 7.33 µM in the assay on KM12 colon; 19 µM in the assay on NCI-H23 lung; 8.85 µM in the assay on RPMI-8226 leukemia. Also, the GI50 with SF-268 CNS is 9.95 µM; with SF-539 CNS it was 11.2 µM; with SW-620 colon, 11 µM; in the assay with UACC-257 melanoma, > 25 µM. The TGI with COLO 205 colon, with HCT-15 colon, in the assay with K-562 leukemia, in the assay with KM12 colon, in the assay with NCI-H23 lung and in the assay with RPMI-8226 leukemia was > 25 µM in each case. For the same compound, the TGI in the assay on SF-268 CNS, in the assay on SF-539 CNS, with SW-620 colon and in the assay with UACC-257 melanoma was > 25 µM in each case.
For `Cc1cc(Cl)ccc1Nc1sc(C(=O)c2cc3cc(Cl)ccc3o2)c(N)c1C#N`, the TGI in the assay with COLO 205 colon was > 100 µM; with HCT-15 colon it was > 100 µM; in the assay with K-562 leukemia, > 100 µM; in the assay on KM12 colon, > 100 µM; in the assay on NCI-H23 lung it was 35.5 µM; with RPMI-8226 leukemia, > 62.4 µM. The TGI is 26.9 µM in the assay with SF-268 CNS, > 66 µM with SF-539 CNS, > 69.9 µM with SW-620 colon and > 100 µM with UACC-257 melanoma.
`Cc1nc(NC(=S)NC(=O)c2ccc(Cl)c(Cl)c2)sc1C(=O)/C=C/c1ccccc1[N+](=O)[O-]`: the TGI in the assay on COLO 205 colon was 34.9 µM; with HCT-15 colon, 51 µM; in the assay with K-562 leukemia, 42.2 µM; with KM12 colon, 39.3 µM; in the assay with NCI-H23 lung, 44.9 µM; with RPMI-8226 leukemia, > 100 µM. Besides, the TGI with SF-268 CNS is > 100 µM; in the assay on SF-539 CNS it was 40.5 µM; in the assay with SW-620 colon, 41.2 µM; in the assay on UACC-257 melanoma, 89.1 µM.
As to `CSc1ccc(-c2cn3ccsc3n2)c(O)c1`, the TGI with COLO 205 colon was > 62.7 µM; in the assay with HCT-15 colon it was > 55.8 µM; in the assay with K-562 leukemia, > 60.2 µM; in the assay with KM12 colon, > 100 µM; in the assay on NCI-H23 lung, > 100 µM; in the assay with RPMI-8226 leukemia, > 65 µM. For the same compound, the TGI was > 100 µM with SF-268 CNS, > 57.3 µM in the assay with SF-539 CNS, > 55.1 µM with SW-620 colon and > 100 µM with UACC-257 melanoma.
As to `COc1cc2c(c(OC)c1OC)-c1ccc(OC)c(=O)cc1[C@@H](NC(=O)CCl)CC2`, the GI50 was < 0.01 µM in the assay on COLO 205 colon; 0.0308 µM with HCT-15 colon; < 0.01 µM in the assay on K-562 leukemia; < 0.01 µM with KM12 colon; < 0.01 µM in the assay on NCI-H23 lung; < 0.01 µM in the assay on RPMI-8226 leukemia. Moreover, the GI50 is < 0.01 µM in the assay with SF-268 CNS, < 0.01 µM in the assay with SF-539 CNS, < 0.01 µM with SW-620 colon and 1.16 µM in the assay on UACC-257 melanoma. Besides, the TGI with COLO 205 colon was < 0.01 µM; with HCT-15 colon it was > 100 µM; in the assay with K-562 leukemia, > 100 µM; with KM12 colon, 0.0521 µM; in the assay on NCI-H23 lung, > 33 µM; in the assay on RPMI-8226 leukemia, 15.8 µM. The TGI in the assay with SF-268 CNS amounted to 3.53 µM; in the assay with SF-539 CNS, 23.7 µM; in the assay on SW-620 colon it was 12 µM; in the assay on UACC-257 melanoma, 31.8 µM.
With `CN1C(=O)n2c(nc3ccccc32)C(N=[N+]=[N-])(N=[N+]=[N-])C1=O` (stereo not drawn), the TGI in the assay on COLO 205 colon, in the assay on HCT-15 colon, with K-562 leukemia, in the assay with KM12 colon, with NCI-H23 lung and in the assay on RPMI-8226 leukemia was > 100 µM in each case. Moreover, the TGI with SF-268 CNS, in the assay with SF-539 CNS, in the assay on SW-620 colon and with UACC-257 melanoma was > 100 µM in each case.
For `C=C(C)C(=O)NC(N)=NC#N`, the GI50 in the assay with COLO 205 colon was 80.5 µM; in the assay with HCT-15 colon, 103 µM; in the assay with KM12 colon it was 147 µM; with NCI-H23 lung it was 147 µM; in the assay on RPMI-8226 leukemia it was 24.7 µM; with SF-268 CNS, 139 µM. Moreover, the GI50 in the assay on SF-539 CNS is 154 µM; in the assay on SW-620 colon it was 41 µM; in the assay on UACC-257 melanoma, 69.4 µM. In addition, the TGI was 206 µM in the assay on COLO 205 colon; 243 µM with HCT-15 colon; 51.5 µM and 58.5 µM with K-562 leukemia; 286 µM in the assay on KM12 colon; 301 µM with NCI-H23 lung; 44.9 µM and 120 µM in the assay with RPMI-8226 leukemia. The TGI was 62.5 µM and 354 µM with SF-268 CNS; 73.3 µM and 290 µM in the assay on SF-539 CNS; 39.4 µM and 170 µM with SW-620 colon; > 66.6 µM and 200 µM with UACC-257 melanoma.
For the compound `CC(C#N)c1cn(S(=O)(=O)c2ccccc2)c2ccccc12` (stereo not drawn), the TGI in the assay on COLO 205 colon, in the assay on HCT-15 colon, with K-562 leukemia, in the assay on KM12 colon, with NCI-H23 lung and in the assay with RPMI-8226 leukemia was > 100 µM in each case. In addition, the TGI in the assay with SF-268 CNS, with SF-539 CNS, in the assay with SW-620 colon and in the assay on UACC-257 melanoma was > 100 µM each time.
With `CCCCCCCCCCCCCOC(=O)c1c(C)[nH]c(/C=C2\N=C(c3ccc[nH]3)C=C2OC)c1C`, the GI50 in the assay on COLO 205 colon is 0.0583 µM; in the assay with HCT-15 colon, 0.0262 µM; with K-562 leukemia, 0.0392 µM; in the assay on KM12 colon, < 0.0167 µM; in the assay with NCI-H23 lung, 0.244 µM; in the assay on RPMI-8226 leukemia it was 0.0498 µM. The GI50 in the assay on SF-268 CNS was 0.109 µM; in the assay on SF-539 CNS, 0.182 µM; with SW-620 colon, 0.0204 µM; in the assay on UACC-257 melanoma it was 0.588 µM. Moreover, the TGI with COLO 205 colon was > 100 µM; in the assay on K-562 leukemia, > 100 µM; in the assay on KM12 colon it was > 100 µM; with NCI-H23 lung, 31.4 µM; in the assay with RPMI-8226 leukemia, > 100 µM; in the assay on SF-268 CNS it was > 59 µM. In addition, the TGI is > 26.9 µM in the assay on SF-539 CNS, > 37.1 µM with SW-620 colon and > 100 µM in the assay on UACC-257 melanoma.
